Measured values as given in US10941137B2, “Difluoromethyl-phenyl triazoles” (Boehringer Ingelheim International GmbH, priority 2018, dated 2021).

What was measured:
α5β2γ2 GABAA receptor = biological target: T1, α5β2γ2 GABAA receptor (Homo sapiens, UniProt P18507+P31644); test: Assay B: modulation of α5β2γ2 GABAA receptor, two-electrode voltage clamp in oocytes; assay type: cell-based; conditions: for EC50: oocytes, TEVC, co-application with GABA 0.5 μM (EC5-20), read-out: Assay B: GABAA α5β3γ2 EC50
T1 sequence (P31644 32-462): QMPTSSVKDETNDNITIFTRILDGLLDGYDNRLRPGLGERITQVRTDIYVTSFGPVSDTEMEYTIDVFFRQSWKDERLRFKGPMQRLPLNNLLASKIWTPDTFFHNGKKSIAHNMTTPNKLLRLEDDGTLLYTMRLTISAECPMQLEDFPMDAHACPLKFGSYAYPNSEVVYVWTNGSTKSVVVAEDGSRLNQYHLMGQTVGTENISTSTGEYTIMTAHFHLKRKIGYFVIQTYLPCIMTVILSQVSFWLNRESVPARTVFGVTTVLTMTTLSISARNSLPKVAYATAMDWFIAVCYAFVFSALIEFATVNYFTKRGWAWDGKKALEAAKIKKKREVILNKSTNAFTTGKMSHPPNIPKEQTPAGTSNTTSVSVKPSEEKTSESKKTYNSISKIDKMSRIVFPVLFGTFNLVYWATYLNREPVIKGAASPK
T1 sequence (P18507 40-376 limits assumed): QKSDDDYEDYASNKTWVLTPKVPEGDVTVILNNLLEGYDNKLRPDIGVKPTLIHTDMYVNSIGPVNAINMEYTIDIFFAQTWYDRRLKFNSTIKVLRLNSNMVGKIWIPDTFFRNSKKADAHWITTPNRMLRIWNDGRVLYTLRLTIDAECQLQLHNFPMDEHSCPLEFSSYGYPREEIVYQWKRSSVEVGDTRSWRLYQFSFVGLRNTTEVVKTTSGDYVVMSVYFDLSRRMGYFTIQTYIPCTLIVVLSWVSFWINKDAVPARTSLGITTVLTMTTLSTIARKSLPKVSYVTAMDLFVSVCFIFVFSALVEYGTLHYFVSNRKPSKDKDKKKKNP
Protocol: Assay B: In vitro evaluation of modulation of α5β2γ2 GABAA receptor.
Modulatory efficacy of compounds of formula (I) is determined electrophysiological recordings in oocytes using the two-electrode voltage clamp (TEVC) technique. Oocytes are injected with cRNA for human GABAA receptor subunits α5, β2 and γ2 in a 3:1:3 ratio and modulatory efficacy is evaluated by co-applications with a submaximal EC5-20 GABA concentration (0.5 μM) termed GABA control. As a standard, the compounds are tested in five concentrations (3.16, 0.316, 0.0316, 0.00316 and 0.000316 μM) on each oocyte starting with the lowest concentration. Background subtracted peak current amplitudes are normalized to the respective GABA control current, converted to % change and depicted +/−S.E.M. as a function of increasing compound concentrations. Plotted datapoints are fitted to the empirical Hill equation using non-linear regression. 95% confidence intervals for maximal efficacy (Bottom) and potency (Log EC50) are derived from this fitting routine.

[1] = Metabolic stability in human liver microsomes (Human MST); assay type: in vitro ADME; conditions: pooled human liver microsomes, pH 7.6; human liver microsomes 1 mg/mL, 1 μM compound, NADPH 1 mM, 37° C.; read-out: Human MST t1/2
Protocol: Assessment of Metabolic Stability in Human Liver Microsomes (Human MST) The metabolic stability of the compounds according to the invention may be investigated as follows: The metabolic degradation of the test compound is assayed at 37° C. with pooled human liver microsomes. The final incubation volume of 100 μL per time point contains TRIS buffer pH 7.6 at room temperature (0.1 M), MgCl2 (5 mM), microsomal protein (1 mg/mL) and the test compound at a final concentration of 1 μM. Following a short pre-incubation period at 37° C., the reactions are initiated by addition of beta-nicotinamide adenine dinucleotide phosphate, reduced form (NADPH, 1 mM), and terminated by transferring an aliquot into solvent after different time points. After centrifugation (10000 g, 5 min), an aliquot of the supernatant is assayed by LCMS/MS for the amount of parent compound. The half-life (t½) is determined by the slope of the semi-logarithmic plot of the concentration-time profile.

human MDR1 P-gp = test: Efflux in MDCK cells transfected with the human MDR1 gene (MDCK-PGP permeability); assay type: in vitro ADME, canine; conditions: dog, pH 7.4, 37° C.; for efflux ratio: PEBA/PEAB; for Papp A→B: apical-to-basal apparent permeability (PEAB)
Protocol: Assessment of Efflux in Madin-Darby Canine Kidney (MDCK) Cells Transfected with the 30 Human MDR1 Gene to Assess Brain Penetration (Drug Metabolism and Disposition February 2008, 36 (2) 268-275; DOI: https://doi.org/10.1124/dmd.107.017434) Apparent permeability coefficients (PE) of the compounds across the MDCK-MDR1 cell monolayers are measured (pH 7.4, 37° C.) in apical-to-basal (AB) and basal-to-apical (BA) transport direction. AB permeability (PEAB) represents drug absorption from the blood into the 35 brain and BA permeability (PEBA) drug efflux from the brain back into the blood via both passive permeability as well as active transport mechanisms mediated by efflux and uptake transporters that are expressed on the MDCK-MDR1 cells, predominantly by the overexpressed human MDR1 P-gp. The compounds are assigned to permeability/absorption classes by comparison of the AB permeabilities with the AB permeabilities of reference compounds with known in vitro permeability and oral absorption in the human. Identical or similar permeabilities in both transport directions indicate passive permeation, vectorial permeability points to additional active transport mechanisms. Higher PEBA than PEAB indicates the involvement of active efflux mediated by MDR1 P-gp. Active transport is concentration-dependently saturable.
MDCK-MDR1 cells (1-2×10e5 cells/1 cm2 area) are seeded on filter inserts (Costar transwell polycarbonate or PET filters, 0.4 μm pore size) and cultured (DMEM) for 7 days. Subsequently, the MDR1 expression is boosted by culturing the cells with 5 mM sodium butyrate in full medium for 2 days. Compounds are dissolved in appropriate solvent (like DMSO, 1-20 mM stock solutions). Stock solutions are diluted with HTP-4 buffer (128.13 mM NaCl, 5.36 mM KCl, 1 mM MgSO4, 1.8 mM CaCl2, 4.17 mM NaHCO3, 1.19 mM Na2HPO4×7H2O, 0.41 mM NaH2PO4xH2O, 15 mM HEPES, 20 mM glucose, 0.25% BSA, pH 7.4) to prepare the transport solutions (0.1-300 μM compound, final DMSO <=0.5%). The transport solution (TL) is applied to the apical or basolateral donor side for measuring A-B or B-A permeability (3 filter replicates), respectively. The receiver side contains the same buffer as the donor side. Samples are collected at the start and end of experiment from the donor and at various time intervals for up to 2 hours also from the receiver side for concentration measurement by HPLC-MS/MS or scintillation counting. Sampled receiver volumes are replaced with fresh receiver solution.

[2] = biological target: T2, human GABAA α5β3γ2s receptor (Homo sapiens, UniProt P18507+P31644); test: Assay A: in vitro inhibition of 3H-flumazenil binding, HEK cells expressing human GABAA α5β3γ2s receptor; conditions: 3H-flumazenil 1 nM, HEK-293 membranes, 40 min at 2° C.; Ki from IC50 by Cheng and Prusoff
T2 sequence (P18507 1-475): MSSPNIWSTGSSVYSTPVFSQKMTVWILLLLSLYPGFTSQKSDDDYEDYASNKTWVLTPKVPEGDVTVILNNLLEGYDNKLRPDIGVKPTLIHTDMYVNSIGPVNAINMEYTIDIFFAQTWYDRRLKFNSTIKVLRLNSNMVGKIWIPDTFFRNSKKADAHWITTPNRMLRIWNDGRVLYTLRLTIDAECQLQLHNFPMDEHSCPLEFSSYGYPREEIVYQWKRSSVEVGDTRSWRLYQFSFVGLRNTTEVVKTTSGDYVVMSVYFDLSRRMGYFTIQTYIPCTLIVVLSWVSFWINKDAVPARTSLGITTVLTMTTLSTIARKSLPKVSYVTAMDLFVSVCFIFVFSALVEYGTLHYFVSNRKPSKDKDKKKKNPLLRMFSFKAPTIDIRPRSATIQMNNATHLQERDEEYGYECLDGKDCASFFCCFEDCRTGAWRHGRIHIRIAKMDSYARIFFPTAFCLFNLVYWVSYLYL
T2 sequence (P31644 1-462): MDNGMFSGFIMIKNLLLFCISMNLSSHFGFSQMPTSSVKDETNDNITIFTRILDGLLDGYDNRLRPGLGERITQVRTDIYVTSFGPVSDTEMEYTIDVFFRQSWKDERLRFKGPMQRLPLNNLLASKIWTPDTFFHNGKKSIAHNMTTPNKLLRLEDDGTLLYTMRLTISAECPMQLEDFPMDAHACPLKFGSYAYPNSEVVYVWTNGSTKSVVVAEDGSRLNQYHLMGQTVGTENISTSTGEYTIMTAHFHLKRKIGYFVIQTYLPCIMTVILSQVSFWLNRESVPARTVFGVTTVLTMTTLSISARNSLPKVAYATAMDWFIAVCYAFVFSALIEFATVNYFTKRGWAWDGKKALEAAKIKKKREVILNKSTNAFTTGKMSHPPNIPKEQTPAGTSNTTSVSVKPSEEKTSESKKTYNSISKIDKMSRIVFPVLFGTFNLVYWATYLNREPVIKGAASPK
Protocol: HEK-293 cell lines with stable expression of recombinant human GABAA α5β3γ2s receptors (plasmid H46/E9/B10) are seeded in T175 polystyrene flasks or roller bottles (1700 cm^2, Fisher Scientific CCI-431191), and cultured (37 C, 5% CO˜) in Dulbecco's Modified Eagle Medium (DMEM) with GlutaMAX™ supplemented with 10% fetal bovine serum and one or both of the following antibiotics: hygromycin B ([…]; γ2 subunit) or G418 (0.5 mg/ml; […]).
When the cultures reach confluency, the DMEM is removed and the cells are washed (10 ml for T175 flasks; 50 ml for roller bottles) once in Dulbecco's Phosphate Buffered Saline (DPBS). Following addition of DPBS to the cultures (10 ml for T175 flasks; 100 ml for roller bottles) for approximately 5 min cells are easily detached from the surface by shaking or tapping the flask gently. The cell suspension is transferred to Falcon tubes and centrifuged at 23,500×g for 10 min at 2° C. The pellet is washed once in 15 ml Tris-citrate buffer (50 mM, pH 7.1) using an Ultra-Turrax homogenizer and centrifuged at 2° C. for 10 min at 27,000×g. The washed pellet is re-suspended in 15 ml Tris-citrate buffer and frozen at −80° C. until the day of the binding experiment.
On the day of the experiment the cell membrane preparation is thawed and centrifuged at 2° C. for 10 min at 27,000×g. The pellet is re-suspended, using an Ultra-Turrax homogenizer in Tris-citrate buffer, to 15-50 µg protein per assay and then used for binding assays.
Non-specific binding is determined using clonazepam (1 μM, final concentration).
All dilutions of test compounds and incubation of assay are performed in glass vials/96-vial plates. […] Compounds are dissolved in 100% DMSO (10 mM stock), diluted in 48% ethanol-water, and tested in triplicate in serial 1:3 or 1:10 dilutions. When screening large numbers of compounds only one concentration of each compound is tested in single wells. Reference compounds are not included routinely, but for each experiment performed total and nonspecific binding is compared to data obtained during validation of the assay.
Binding is either terminated by rapid filtration onto
1) Whatman GF/C glass fibre filters using a Brandel Cell harvester, followed by 5 washes with 1 ml ice-cold buffer or onto 2) UniFilter GF/C glass fibre filter plates using a Tomtec cell harvester, followed by washing with approximately 5 ml ice-cold buffer.
The amount of radioactivity on the filters is determined by conventional liquid scintillation counting using a
1) Tri-Garb™ counter (PerkinElmer Life and Analytical Sciences) for separate large filters or
2) Topcount™ counter (PerkinElmer Life and Analytical Sciences) for 96-well filter plates. Specific binding is total binding minus non-specific binding.
For screening purposes n is set to 1. The IC50 value is calculated from the concentration response curves by the non-linear regression method using the curve-fitting program GraphPad Prism. […]

SMILES	Assay B: GABAA α5β3γ2 Emax vs GABA (α5β2γ2 GABAA receptor) [%]	EC50 (α5β2γ2 GABAA receptor) [nM]	half-life at 1 μM [1] [h]	efflux ratio (human MDR1 P-gp)	Papp A→B (human MDR1 P-gp) [×10⁻⁶ cm/s]	Ki [2] [nM]
Cc1nnn(-c2ccc(C(F)F)cc2)c1COc1ccc(-n2cnc(C#N)c2)nn1 [Example 1, 1-[6-({1-[4-(difluoromethyl)phenyl]-4-methyl-1H-1,2,3-triazol-5-yl}methoxy)pyridazin-3-yl]-1H-imidazole-4-carbonitrile]	-23.3	1.5	> 2.17	2.6	18.1	
Cc1nnn(-c2ccc(C(F)F)cc2)c1COc1ccc(-c2ccn[nH]2)nn1 [Example 10]	-18	5.8	> 2.17	1.7	22.4	
Cc1nnn(-c2ccc(C(F)F)cc2)c1COc1ccc(-c2cnccn2)nn1 [Example 13]	-23	9	> 2.17	0.5	69	
Cc1nnn(-c2ccc(C(F)F)cc2)c1COc1ccc(-n2cnc(C(=O)N(C)C)c2)nn1 [Example 16]	0		> 2.17			0.16
Cc1nnn(-c2ccc(C(F)F)cc2)c1COc1ccc(-n2cnc([S+](C)[O-])c2)nn1 (stereo not shown) [Example 23]	-12	2				0.27
Cc1nnn(-c2ccc(C(F)F)cc2)c1COc1ccc(-n2cncn2)nn1 [Example 28, 3-({1-[4-(difluoromethyl)phenyl]-4-methyl-1H-1,2,3-triazol-5-yl}methoxy)-6-(1H-1,2,4-triazol-1-yl)pyridazine]	-25	5.5	> 2.17	0.6	68.7	
Cc1nnn(-c2ccc(C(F)F)cc2)c1COc1ccc(-n2nc(C#N)cc2C)nn1 [Example 34]	-4.3					0.035
